# pIC50: −log10 of the molar value. Where two headings read alike, the source gives them in different places.
# Legend:
# [1] = Stability in human microsomes; assay type: in vitro ADME
# CYP 3A4 = CYP 3A4 (Homo sapiens, UniProt P08684); assay: CYP inhibition 3A4; assay type: in vitro ADME
# [2] = Kinetic solubility by chemi-luminescent nitrogen detection (CLND); assay type: physicochemical; settings: aqueous buffer, kinetic from dmso stock, DMSO stock incubated 1 hr in phosphate buffered saline pH 7.4, filtered
# SIRT2 = molecular target: T1, SIRT2 (Homo sapiens, UniProt Q8IXJ6); assay: SIRT2 deacetylation of Trp 5-mer peptide, OAADPr mass spec assay; assay type: biochemical; parameters: His-SIRT2(1-389)
# T1 sequence (Q8IXJ6 1-389): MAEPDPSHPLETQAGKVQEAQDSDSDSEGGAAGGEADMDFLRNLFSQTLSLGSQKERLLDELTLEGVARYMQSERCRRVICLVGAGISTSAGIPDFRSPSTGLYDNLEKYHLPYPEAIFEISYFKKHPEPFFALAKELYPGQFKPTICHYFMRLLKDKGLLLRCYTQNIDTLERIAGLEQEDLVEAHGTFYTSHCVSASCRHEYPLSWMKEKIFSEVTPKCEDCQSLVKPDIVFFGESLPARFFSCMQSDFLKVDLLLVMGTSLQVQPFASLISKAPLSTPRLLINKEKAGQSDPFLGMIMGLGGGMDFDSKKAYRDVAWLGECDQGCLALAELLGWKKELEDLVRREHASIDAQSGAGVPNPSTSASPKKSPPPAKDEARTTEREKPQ
# CYP 2D6 = CYP 2D6 (Homo sapiens, UniProt P10635); assay: CYP inhibition 2D6; assay type: in vitro ADME
# SIRT1 = molecular target: T2, SIRT1 (Homo sapiens, UniProt Q96EB6); assay: SIRT1 deacetylation of Trp 5-mer peptide, OAADPr mass spec assay
# T2 sequence (Q96EB6 1-747): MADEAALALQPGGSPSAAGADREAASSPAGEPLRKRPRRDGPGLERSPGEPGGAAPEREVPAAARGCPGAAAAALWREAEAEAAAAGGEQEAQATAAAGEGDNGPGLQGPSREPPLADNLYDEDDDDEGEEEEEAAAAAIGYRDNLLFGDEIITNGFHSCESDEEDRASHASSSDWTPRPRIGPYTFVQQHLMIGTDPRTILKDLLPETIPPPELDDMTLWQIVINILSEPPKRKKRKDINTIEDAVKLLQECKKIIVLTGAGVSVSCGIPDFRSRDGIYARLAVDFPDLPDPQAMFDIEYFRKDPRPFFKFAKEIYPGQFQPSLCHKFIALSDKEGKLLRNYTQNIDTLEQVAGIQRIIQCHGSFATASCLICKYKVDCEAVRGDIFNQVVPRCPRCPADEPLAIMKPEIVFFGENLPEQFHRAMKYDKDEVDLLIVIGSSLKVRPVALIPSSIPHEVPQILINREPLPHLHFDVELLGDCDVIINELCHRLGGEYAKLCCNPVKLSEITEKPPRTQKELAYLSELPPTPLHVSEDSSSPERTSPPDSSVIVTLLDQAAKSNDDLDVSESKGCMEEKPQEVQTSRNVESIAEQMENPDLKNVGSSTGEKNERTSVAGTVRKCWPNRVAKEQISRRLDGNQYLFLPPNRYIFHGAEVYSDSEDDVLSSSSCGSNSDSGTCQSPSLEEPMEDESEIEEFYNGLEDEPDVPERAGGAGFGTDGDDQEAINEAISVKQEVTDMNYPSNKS
# Method: All assays were performed at room temperature in reaction buffer (50 mM HEPES, pH 7.5, 150 mM NaCl, 1 mM DTT, 0.05% BSA). […] To prepare the assays for analysis, 20 μL of reaction volume was mixed in 80 μL of 50:50 acetonitrile:methanol mixture. […] Peak data was integrated using RapidFire Integrator software (Agilent, Santa Clara, Calif.).
# CYP 1A2 = molecular target: T3, CYP 1A2 (Homo sapiens, UniProt P05177); assay: CYP inhibition 1A2; assay type: in vitro ADME
# T3 sequence (P05177 1-516): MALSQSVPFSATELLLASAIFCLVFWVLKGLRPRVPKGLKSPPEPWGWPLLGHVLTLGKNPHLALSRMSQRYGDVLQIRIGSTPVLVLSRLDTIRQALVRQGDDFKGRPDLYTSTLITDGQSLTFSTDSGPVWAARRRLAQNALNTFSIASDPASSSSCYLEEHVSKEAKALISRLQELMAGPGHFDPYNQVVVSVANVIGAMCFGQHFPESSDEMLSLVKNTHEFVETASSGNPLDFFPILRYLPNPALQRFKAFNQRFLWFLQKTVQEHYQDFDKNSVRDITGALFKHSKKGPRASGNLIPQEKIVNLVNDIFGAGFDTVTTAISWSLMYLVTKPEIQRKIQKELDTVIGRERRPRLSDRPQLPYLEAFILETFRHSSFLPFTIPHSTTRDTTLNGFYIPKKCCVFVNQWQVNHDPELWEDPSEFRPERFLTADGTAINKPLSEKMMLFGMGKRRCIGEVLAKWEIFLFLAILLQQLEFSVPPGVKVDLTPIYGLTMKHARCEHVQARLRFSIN
# CYP 2C19 = CYP 2C19 (Homo sapiens, UniProt P33261); assay: CYP inhibition 2C19; assay type: in vitro ADME
# [3] = Stability in mouse microsomes; assay type: in vitro ADME
# [4] = HPLC based lipophilicity assay (CHI LogD); assay type: physicochemical; settings: CHI values by reverse phase HPLC transformed to a LogD scale
# [5] = test system: sirtuin mediated deacetylation of acetyl-p65; assay: Acetyl-p65 assay in U2OS cells (AlphaScreen); assay type: cell-based; settings: FIG. 6
# Method: In certain embodiments, U2OS cells were counted by hemocytometer and diluted to a concentration of 1.5×10^5 cell/ml. BacMam p65 and BacMam p300-HAT viruses were added to the diluted cells at 1% and 1% (vol/vol). 40 μl aliquots of the cell suspensions containing the viruses were plated onto a 384 well plate with a multi-drop dispenser. After 7 hours, a 2-fold serial dilution of Compounds 25, 28 and Compound 4, hereafter referred to as the test compounds, was carried out in DMSO. The test compounds were subsequently diluted with medium (20-fold) in an intermediate compound plate, and 4 μL of each test compound was transferred by a liquid handler from the intermediate plate to a cell plate. 24 hours post viral transduction, the medium in the cell plate was removed by inverting and flicking the plate, and blotting the plate with paper towels. 30 μl of lysis buffer (25 mM HEPES pH 7.4, 0.5% Triton X-100, 1 mg/ml Dextran 500, 0.1% BSA, 300 mM NaCl, 2 mM MgCl2, 1×protease inhibitor cocktail) was added to each well to lyse the cells. After incubation of the cells with lysis buffer for 30 minutes at room temp, 10 μl and 3 μl aliquots of the cell lysates were transferred to assay plates, and the assay plate containing 3 μl aliquot of cell lysates was diluted with an additional 7 μl of lysis buffer to obtain a final volume of 10 μl. Acetyl-p65 and total p65 protein in cell lysates were measured using the AlphaScreen assay format (PerkinElmer). The antibodies used to detect acetyl-p65 protein were biotinylated anti-HA antibody (Roche, 12158167001) and anti-acetylated K310-p65 antibody (Abcam, ab19870). The antibodies used to detect total p65 protein were biotinylated anti-HA antibody (Roche, 12158167001) and anti-p65 antibody (Santa Cruz, sc109). […] After incubating the plates for another 2 hrs in the dark, the plates were read by a PHERAstar microplate reader. […]
# Chain of CYP 3A4 (P08684 whole entry): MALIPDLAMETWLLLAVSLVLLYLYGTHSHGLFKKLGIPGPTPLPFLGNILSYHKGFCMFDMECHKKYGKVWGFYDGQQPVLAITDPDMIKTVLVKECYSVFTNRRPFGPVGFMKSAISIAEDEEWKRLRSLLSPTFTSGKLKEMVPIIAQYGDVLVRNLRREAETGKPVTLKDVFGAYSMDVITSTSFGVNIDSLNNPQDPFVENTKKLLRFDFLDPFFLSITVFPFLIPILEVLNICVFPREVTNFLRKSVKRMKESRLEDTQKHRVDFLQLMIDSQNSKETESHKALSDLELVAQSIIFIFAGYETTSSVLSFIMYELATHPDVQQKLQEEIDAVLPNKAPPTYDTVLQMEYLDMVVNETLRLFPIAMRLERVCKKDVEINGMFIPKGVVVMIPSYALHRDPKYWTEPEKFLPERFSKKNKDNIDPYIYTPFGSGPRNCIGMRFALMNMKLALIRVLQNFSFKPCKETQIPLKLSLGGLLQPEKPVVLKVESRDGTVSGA
# Chain of CYP 2D6 (P10635 whole entry): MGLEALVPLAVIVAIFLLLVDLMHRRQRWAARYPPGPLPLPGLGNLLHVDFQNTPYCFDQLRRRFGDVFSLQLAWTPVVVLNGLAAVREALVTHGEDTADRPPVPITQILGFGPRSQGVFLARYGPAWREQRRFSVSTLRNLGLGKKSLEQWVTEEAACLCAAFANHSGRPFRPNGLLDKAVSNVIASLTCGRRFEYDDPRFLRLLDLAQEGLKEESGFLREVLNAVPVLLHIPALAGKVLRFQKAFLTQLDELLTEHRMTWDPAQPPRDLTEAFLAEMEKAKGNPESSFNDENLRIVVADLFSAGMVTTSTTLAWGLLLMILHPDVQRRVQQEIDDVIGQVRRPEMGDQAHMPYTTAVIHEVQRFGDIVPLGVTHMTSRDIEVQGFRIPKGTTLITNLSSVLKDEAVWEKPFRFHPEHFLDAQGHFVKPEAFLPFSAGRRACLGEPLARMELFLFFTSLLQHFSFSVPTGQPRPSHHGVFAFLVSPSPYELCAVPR
# Chain of CYP 2C19 (P33261 whole entry): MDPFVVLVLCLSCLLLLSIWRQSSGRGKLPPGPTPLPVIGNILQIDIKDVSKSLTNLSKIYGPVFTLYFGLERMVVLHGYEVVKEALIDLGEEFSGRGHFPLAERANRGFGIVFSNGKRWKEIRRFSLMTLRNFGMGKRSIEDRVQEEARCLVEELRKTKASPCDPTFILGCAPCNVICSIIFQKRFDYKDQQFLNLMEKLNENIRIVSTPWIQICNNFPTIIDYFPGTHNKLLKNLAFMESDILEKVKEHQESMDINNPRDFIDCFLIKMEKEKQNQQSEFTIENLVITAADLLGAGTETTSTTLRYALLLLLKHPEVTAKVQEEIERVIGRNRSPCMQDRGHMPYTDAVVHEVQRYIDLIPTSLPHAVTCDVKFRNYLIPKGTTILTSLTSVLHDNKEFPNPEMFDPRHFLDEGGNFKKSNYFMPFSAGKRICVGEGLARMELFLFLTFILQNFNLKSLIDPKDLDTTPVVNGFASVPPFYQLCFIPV
structure (smiles),measurement,setting,value
"CC(C)(C)C(=O)NCCC1CCN(c2ncnc3cc(C(N)=O)sc23)CC1 [Compound 28, 4-(4-(2-pivalamidoethyl)piperidin-1-yl)thieno[3,2-d]pyrimidine-6-carboxamide]",Human CLint,[1],15.8 µL/min/mg
same,CYP 3A4,CYP 3A4,> 50 µM
same,solubility at 1 hr,[2],297 µM
same,IC50,"SIRT2; Trp 5-mer peptide and NAD at KM, mean of at least three determinations, read-out: IC50 (μM) SIRT2",0.01 µM
same,pIC50,"SIRT2; Trp 5-mer peptide, class symbols, read-out: Trp SIRT2_IC50",> 6.00
same,CYP 2D6,CYP 2D6,> 50 µM
same,pIC50,"SIRT1; Trp SIRT1_IC50, Trp 5-mer peptide, class symbols",> 6.00
same,IC50,"SIRT1; read-out: IC50 (μM) SIRT1, Trp 5-mer peptide and NAD at KM, mean of at least three determinations",0.015 µM
same,CYP 1A2,CYP 1A2,> 50 µM
same,CYP 2C19,CYP 2C19,> 50 µM
same,Mouse CLint,[3],12.7 µL/min/mg
same,LogD,[4],2.73
same,inhibition of sirtuin mediated deacetylation of acetyl-p65,[5],inhibit

# — US20160002273A1, “THIENO[3,2-D]PYRIMIDINE-6-CARBOXAMIDES AND ANALOGUES AS SIRTUIN MODULATORS” (GLAXOSMITHKLINE LLC, priority 2013, published 2016)
